The target in experiment [1] is T1, SCO4122 (Streptomyces coelicolor, UniProt Q9KYE8).
T1 sequence (Q9KYE8 1-182): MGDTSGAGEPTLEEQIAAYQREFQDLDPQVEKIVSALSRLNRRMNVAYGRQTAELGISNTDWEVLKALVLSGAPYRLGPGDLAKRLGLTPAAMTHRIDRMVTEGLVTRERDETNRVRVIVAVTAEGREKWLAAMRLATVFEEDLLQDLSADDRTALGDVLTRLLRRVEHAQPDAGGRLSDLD
The experiment is described as follows: SPR. The format is binding.

In experiment [2] the target is T2, SCO4122 (Streptomyces coelicolor, UniProt Q9KYE8, M93L).
T2 sequence (Q9KYE8 1-182 M93L): T1 sequence (Q9KYE8 1-182) with M93L
The experiment is described as follows: SPR. The class given is binding.

Kd data for five compounds are collected here from doi:10.1101/2024.02.28.577416v1 (biorxiv, 2024).

In general, Kd refers to the free concentration of one partner at which half of the binding sites on the other are occupied at equilibrium, for simple one-to-one binding. A high value points to lower affinity.

Each structure is given as a SMILES string. Substitutions are numbered along the chain they refer to.

`CC[n+]1c(-c2ccccc2)c2cc(N)ccc2c2ccc(N)cc21` [EtBr] yielded a Kd on SCO4122 [1] of 1.39 µM.

In the case of `[H]/N=C(/N)N[C@H]1[C@H](O)[C@@H](O)[C@H](O[C@@H]2O[C@@H](C)[C@](O)(C=O)[C@H]2O[C@@H]2O[C@@H](CO)[C@H](O)[C@@H](O)[C@@H]2NC)[C@@H](N/C(N)=N\[H])[C@@H]1O` [streptomycin], the results for the Kd on SCO4122 [2] and at SCO4122 [1] were 53.9 µM and 0.73 µM, respectively. Take `O=C(O)c1cn(C2CC2)c2cc(N3CCNCC3)c(F)cc2c1=O` [ciprofloxacin]: the Kd at SCO4122 [1] amounted to 31 µM. As to `CN(C)[C@@H]1C(=O)C(C(N)=O)=C(O)[C@@]2(O)C(=O)C3=C(O)c4c(O)cccc4[C@@](C)(O)[C@H]3C[C@@H]12` [tetracycline], the Kd on SCO4122 [2] came out at 2.43 µM; on SCO4122 [1], 2.68 µM. Compound `O=C(N[C@H](CO)[C@H](O)c1ccc([N+](=O)[O-])cc1)C(Cl)Cl` [chloramphenicol] came in with a Kd at SCO4122 [1] of 2000 µM.
